This note sets out measurements from US11446287B2, “Compounds and methods for EP300 or CBP modulation and indications therefor” (Opna Immuno-Oncology SA, priority 2019, dated 2022).

Structures are written as SMILES.

The target of this assay is T1, Recombinant human CBP containing the bromodomain (CBP-BD (1043-1159)) (Homo sapiens, UniProt Q92793).
T1 construct: Recombinant human CBP bromodomain (CBP-BD (1043-1159)); made in house; host or cells: E. coli BL21-CodonPlus (DE3), modified pET vector
T1 sequence (Q92793 1081-1197): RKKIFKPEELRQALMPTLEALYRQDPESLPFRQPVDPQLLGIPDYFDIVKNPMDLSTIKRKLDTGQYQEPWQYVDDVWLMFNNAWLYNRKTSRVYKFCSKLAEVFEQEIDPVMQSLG
Kind of assay: CBP Alphascreen binding assay. The settings on record: read-out: CREBBP (CBP) IC50. The essentials: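 Buffer: 50 mM HEPES pH 7.5, 50 mM NaCl, 0.01% BSA, 0.01% Triton X-100, 2 mM DTT. The signal was normalised to plate controls and fitted with a four-parameter curve to give IC50.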
Background: In Alpha technology, singlet oxygen from a donor bead excites a nearby acceptor bead.
For `CCOc1cc(C(=O)O)nc(OCC)c1-c1cn(-c2cn(CC)nc2C)c2ncc(-c3c(C)noc3C)cc12` [P-0430, 5-(5-(3,5-dimethylisoxazol-4-yl)-1-(1-ethyl-3-methyl-1H-pyrazol-4-yl)-1H-pyrrolo[2,3-b]pyridin-3-yl)-4,6-diethoxypicolinic acid], the IC50 (commonly the midpoint of a concentration-inhibition curve) was in the range of 0.0001 to 1 µM.
Take `CCOc1cc(C(=O)O)nc(OCC)c1-n1cc(-c2ccc(F)cc2F)c2ncc(-c3c(C)noc3C)cc21` [P-0431, 5-(3-(2,4-difluorophenyl)-6-(3,5-dimethylisoxazol-4-yl)-1H-pyrrolo[3,2-b]pyridin-1-yl)-4,6-diethoxypicolinic acid]: the IC50 lay within 0.0001 to 1 µM.
Then `CCOc1cc(C(=O)OC)nc(OCC)c1-c1cn(-c2ccc(F)cc2F)c2ncc(-c3c(C)noc3C)cc12` [P-0432, methyl 5-(1-(2,4-difluorophenyl)-5-(3,5-dimethylisoxazol-4-yl)-1H-pyrrolo[2,3-b]pyridin-3-yl)-4,6-diethoxypicolinate], with 0.0001 to 1 µM; and `CCOc1cc(C(=O)O)nc(OCC)c1-c1cn(C2CCN(C(=O)OC(C)(C)C)CC2)c2ncc(-c3c(C)noc3C)cc12` [P-0433, 5-(1-(1-(tert-butoxycarbonyl)piperidin-4-yl)-5-(3,5-dimethylisoxazol-4-yl)-1H-pyrrolo[2,3-b]pyridin-3-yl)-4,6-diethoxypicolinic acid], with 0.0001 to 1 µM; and `Cc1noc(C)c1-c1cnc2c(c1)c(C1CCC(C(=O)O)CC1)cn2-c1ccc(F)cc1F` (centres unmarked) [P-0434, 4-(1-(2,4-difluorophenyl)-5-(3,5-dimethylisoxazol-4-yl)-1H-pyrrolo[2,3-b]pyridin-3-yl)cyclohexane-1-carboxylic acid], with 0.0001 to 1 µM.
As for `CCOc1cc(C(=O)O)nc(OCC)c1-c1cn(C2CCN(S(C)(=O)=O)CC2)c2ncc(-c3c(C)noc3C)cc12` [P-0435, 5-(5-(3,5-dimethylisoxazol-4-yl)-1-(1-(methylsulfonyl)piperidin-4-yl)-1H-pyrrolo[2,3-b]pyridin-3-yl)-4,6-diethoxypicolinic acid], the IC50 fell in the range of 0.0001 to 1 µM.
Next, `CCOc1cc(C(=O)O)nc(OCC)c1-c1cn(-c2cccnc2)c2ncc(-c3c(C)noc3C)cc12` [P-0436, 5-(5-(3,5-dimethylisoxazol-4-yl)-1-(pyridin-3-yl)-1H-pyrrolo[2,3-b]pyridin-3-yl)-4,6-diethoxypicolinic acid]: 0.0001 to 1 µM; `Cc1noc(C)c1-c1cnc2c(c1)c(-c1ccc(CC(=O)O)cc1F)cn2-c1ccc(F)cc1F` [P-0437]: 0.0001 to 1 µM.
Next, `Cc1noc(C)c1-c1cnc2c(c1)c(-c1ccc(CC(=O)O)cc1)cn2-c1ccc(F)cc1F` [P-0438, 2-(4-(1-(2,4-difluorophenyl)-5-(3,5-dimethylisoxazol-4-yl)-1H-pyrrolo[2,3-b]pyridin-3-yl)phenyl)acetic acid]: 0.0001 to 1 µM; `Cc1noc(C)c1-c1cnc2c(c1)c(-c1c(Cl)cc(C(=O)O)cc1OC(F)(F)F)cn2-c1cccnn1` [P-0439, 3-chloro-4-(5-(3,5-dimethylisoxazol-4-yl)-1-(pyridazin-3-yl)-1H-pyrrolo[2,3-b]pyridin-3-yl)-5-(trifluoromethoxy)benzoic acid]: 0.0001 to 1 µM.
For the compound `COC(=O)c1cc(Cl)c(-c2cn(-c3ccc(C4CC4)nc3)c3ncc(-c4c(C)noc4C)cc23)c(OC(F)(F)F)c1` [P-0440, methyl 3-chloro-4-(1-(6-cyclopropylpyridin-3-yl)-5-(3,5-dimethylisoxazol-4-yl)-1H-pyrrolo[2,3-b]pyridin-3-yl)-5-(trifluoromethoxy)benzoate], the IC50 lay in the range of 1 to 8 µM.
Next, `Cc1noc(C)c1-c1cnc2c(c1)c(-c1c(Cl)cc(C(=O)O)cc1OC(F)(F)F)cn2-c1ccc(C2CC2)nc1` [P-0441, 3-chloro-4-(1-(6-cyclopropylpyridin-3-yl)-5-(3,5-dimethylisoxazol-4-yl)-1H-pyrrolo[2,3-b]pyridin-3-yl)-5-(trifluoromethoxy)benzoic acid]: 0.0001 to 1 µM.
Next, `CCOc1cc(C(=O)O)c(F)cc1-c1cn(C2CCN(C(=O)OC(C)(C)C)CC2)c2ncc(-c3c(C)noc3C)cc12` [P-0442, 4-(1-(1-(tert-butoxycarbonyl)piperidin-4-yl)-5-(3,5-dimethylisoxazol-4-yl)-1H-pyrrolo[2,3-b]pyridin-3-yl)-5-ethoxy-2-fluorobenzoic acid]: 0.0001 to 1 µM; `COc1ccc(CC(=O)O)cc1-c1cn(-c2ccc(F)cc2F)c2ncc(-c3c(C)noc3C)cc12` [P-0443, 2-(3-(1-(2,4-difluorophenyl)-5-(3,5-dimethylisoxazol-4-yl)-1H-pyrrolo[2,3-b]pyridin-3-yl)-4-methoxyphenyl)acetic acid]: 0.0001 to 1 µM; `Cc1noc(C)c1-c1cnc2c(c1)c(-c1cc(F)c(C(=O)O)cc1OC(F)(F)F)cn2-c1ccc(C2CC2)nc1` [P-0444, 4-(1-(6-cyclopropylpyridin-3-yl)-5-(3,5-dimethylisoxazol-4-yl)-1H-pyrrolo[2,3-b]pyridin-3-yl)-2-fluoro-5-(trifluoromethoxy)benzoic acid]: 0.0001 to 1 µM.
Then `CCOc1cc(C(=O)O)c(F)cc1-c1cn(C2CCN(C(=O)C(C)(C)C)CC2)c2ncc(-c3c(C)noc3C)cc12` [P-0445, 4-(5-(3,5-dimethylisoxazol-4-yl)-1-(1-pivaloylpiperidin-4-yl)-1H-pyrrolo[2,3-b]pyridin-3-yl)-5-ethoxy-2-fluorobenzoic acid], with 0.0001 to 1 µM.
Consider `CCOc1cc(C(=O)O)c(F)cc1-c1cn(C2CCN(CCC#N)CC2)c2ncc(-c3c(C)noc3C)cc12` [P-0446, 4-(1-(1-(2-cyanoethyl)piperidin-4-yl)-5-(3,5-dimethylisoxazol-4-yl)-1H-pyrrolo[2,3-b]pyridin-3-yl)-5-ethoxy-2-fluorobenzoic acid], for which the IC50 lay in the range of 0.0001 to 1 µM.
Then `CCOc1cc(C(=O)O)c(F)cc1-c1cn(C2CCN(C(=O)CO)CC2)c2ncc(-c3c(C)noc3C)cc12` [P-0447, 4-(5-(3,5-dimethylisoxazol-4-yl)-1-(1-(2-hydroxyacetyl)piperidin-4-yl)-1H-pyrrolo[2,3-b]pyridin-3-yl)-5-ethoxy-2-fluorobenzoic acid], with 0.0001 to 1 µM.
As to `CCc1onc(C)c1-c1cnc2c(c1)c(-c1c(Cl)cc(C(=O)O)cc1OC(F)(F)F)cn2-c1ccc(C2CC2)nc1` [P-0448, 3-chloro-4-(1-(6-cyclopropylpyridin-3-yl)-5-(5-ethyl-3-methylisoxazol-4-yl)-1H-pyrrolo[2,3-b]pyridin-3-yl)-5-(trifluoromethoxy)benzoic acid], the IC50 is 0.0001 to 1 µM.
On to `Cc1nnn(C)c1-c1cnc2c(c1)c(-c1cccc(C(=O)O)c1)cn2[C@@H](C)c1ccccn1` [P-0449, (S)-3-(5-(1,4-dimethyl-1H-1,2,3-triazol-5-yl)-1-(1-(pyridin-2-yl)ethyl)-1H-pyrrolo[2,3-b]pyridin-3-yl)benzoic acid], for which the IC50 lay in the range of 0.0001 to 1 µM.
